{"source": "patent US12226385B2", "about": "“Synergistic composition for activating intracellular secondary messenger(cAMP) pathway” (CELAGENEX RESEARCH (INDIA) PRIVATE LTD., priority 2021, dated 2025)", "key": {"[1]": {"test_system": "experimental rat", "assay": "Novel Object Test in rats", "type": "in vivo", "experimental": "(§1) Evaluation of physical parameters of the test substances in experimental rat.\n(§2) • Species: Rat • Strain: Wister • Sex: Male • No. of animals: 48 Animals (n=6 per group) • Body weight: 180-200 gm Group, Designation and Dose Levels:\n(§3) The tests were performed by the known technique.\n(§4) The following behavioural test were conducted at the end of the treatment, • Force Swim Test • Open Field Test • Behavioural at Novel Object Test • Behaviour at Elevated Plus Maze (EPM) test\nTable 5 represent behavioural at novel object test where latency time spent towards the novel objects indicated better memory and learning ability. This test is based on the spontaneous tendency of rats to spend more time exploring a novel object than a familiar one."}, "[2]": {"test_system": "CREB (Cyclic AMP Response Element-Binding Protein)", "assay": "Estimation of CREB (Cyclic AMP Response Element-Binding Protein)", "type": "cell-based, Rat", "conditions": "doses per Table 1", "experimental": "g. Estimation of CREB (Cyclic AMP Response Element-Binding Protein) nM Results:\n(§5) The estimation of modulatory effect of test substance on biochemical parameters were analysed in C6 (Rat Glioblastoma) cell. […] This indicated the increase in synapse number and neuroplasticity."}, "[3]": {"test_system": "ALCAR", "assay": "Estimation of ALCAR plasma level (ALCAR ELISA kit)", "type": "cell-based, Rat", "conditions": "doses per Table 1", "experimental": "f. Estimation of ALCAR Plasma Level (Nmol/Ml): Assay Performed by ALCAR ELISA Kit\nas §5"}, "[4]": {"test_system": "cAMP", "assay": "Modulatory effect on cAMP levels in C6 cells (ELISA kit)", "type": "cell-based", "conditions": "C6 (Rat Glioblastoma) cells, 28 hours of incubation, doses per Table 1", "experimental": "To assess the effectiveness of test substance on modulation of cAMP and evaluation of BDNF in Rat Glioblastoma cells.\nThe cytotoxicity profiling of the test substance was carried out to find the safe dose on C6 cells. […] The levels of cAMP in the cell lysate were measured using a suitable ELISA kit to infer the modulatory effect.\n10 mg of test substance was separately dissolved in 100 μL of DMSO and volume was made up with Ham's F-12 medium supplemented with 2% inactivated FBS to obtain a stock solution of 10 mg/mL concentration and sterilized by 0.22μ syringe filtration. Serial two-fold dilutions were prepared from this stock solution for further studies.\nC6 (Rat Glioblastoma) cell line was procured from NCCS, India. Stock cells was cultured in Ham's F-12 medium supplemented with 10% inactivated Fetal Bovine Serum (FBS), penicillin (100 IU/ml), streptomycin (100 μg/ml) and amphotericin B (5 μg/ml) in a humidified atmosphere of 5% CO2 at 37° C. until confluent. Passaging was done by centrifuging the cells, followed by seeding the pellet into a tissue culture vessel. The stock cultures were grown in 25 cm2 culture flasks and all experiments will be carried out in 96 microtitre plates (Tarsons India Pvt. Ltd., Kolkata, India).\nTo perform the assay, cells were seeded in 24-well plates containing […] complete Ham's F-12 with 4.5 g/L glucose. […] Then, the selected dose of test substances and positive control (Clozapine) was added to the cells. After 28 hours of incubation, the cell supernatants from respective treatment wells were collected and assayed to estimate the levels of cyclic AMP using a commercially available kit."}, "[5]": {"test_system": "experimental rat", "assay": "Force Swim Test in rats", "type": "in vivo", "conditions": "male Wister rats, n=6, end of treatment, doses per Table 3", "experimental": "as §1, §2, §3, §4"}, "[6]": {"test_system": "Adult Patients with Major Depressive Disorder", "assay": "Clinical study, serum Acetyl-L carnitine (ALCAR) levels", "type": "in vivo, human", "source_text": "(§6) A double-blind, Fixed-dose study, 80 participants (males and females) with major depression were randomly assigned to receive test samples. Age eligibility for study include 18 Years to 65 Years (Adult, Older Adult)\nTo measure serum Acetyl-L carnitine levels pre-treatment and end of 12 weeks and correlate it with severity of depression and treatment outcomes."}, "[7]": {"test_system": "experimental rat", "assay": "Elevated Plus Maze (EPM) test in rats", "type": "in vivo", "experimental": "as §1, §2, §3, §4"}, "[8]": {"test_system": "experimental rat", "assay": "Open Field Test in rats", "type": "in vivo", "experimental": "as §1, §2, §3, §4"}, "[9]": {"test_system": "Adult Patients with Major Depressive Disorder", "assay": "Double-blind, fixed-dose clinical study, Hamilton Rating Scale for Depression (HAM-D)", "type": "in vivo, human", "experimental": "Composition-1—(3R)-3-acetyloxy-4-(trimethylazaniumyl)butanoate+N-4-Aminobutylguanidine—500 mg+250 mg\nas §6\nParticipants were evaluated at visits at screening, baseline/randomization, and 4, 8, and 12 weeks after randomization. Masking—Triple (Participant, Investigator, Outcomes Assessor); Parallel Assignment\nPre-assignment Details: A one-week single-blind placebo period was completed prior to randomization.\nChange From Baseline in Hamilton Rating Scale for Depression (HAM-D) at Week 4, 8 and 12 [Time Frame: Change from baseline in HAM-D at week 4, 8 and 12]\nThe HAMD is a clinician-rated 21-item scale was used to rate the patient's depressive state. It was also used to identify obsessive-compulsive, genital, and somatic symptoms, as well as diurnal variation in the presence of symptoms. Each item was scored on a 1, 2, 3, 4 or 5-point Likert scale. A score of 0 indicated the absence of symptoms, and a score of 2, 3 or 4 indicated symptoms of maximum severity. The total score range is 0 to 62 (higher score indicates a greater depressive state)."}, "[10]": {"test_system": "BDNF", "assay": "Estimation of BDNF levels in C6 cells (Rat BDNF ELISA kit)", "type": "cell-based", "conditions": "C6 (Rat Glioblastoma) cells, 28 hours of incubation, doses per Table 1", "method": "To perform the assay, cells were seeded in 24-well plates containing 500 μL complete Ham's F-12 with 4.5 g/L glucose. After 24 h, the confluent monolayer of cells was firstly incubated with the corresponding inhibitor compound for 1-4 h (based on standardization) minutes in the incubator at 37° C. and 5% CO2. Then, the selected dose of test substances and positive control was added to the cells. After 28 hours of incubation, the cell supernatants from respective treatment wells were collected and assayed to estimate the levels of BDNF using a commercially available Rat BDNF ELISA kit."}, "[11]": {"conditions": "male Wister rats, n=6, end of treatment, doses per Table 3"}, "[12]": {"conditions": "pretreatment, whole arm (Table 8)"}}, "note": "Like-named read-outs stand apart in the source and are kept apart here."}
{"smiles": "CN(C)CCC[C@@]1(c2ccc(F)cc2)OCc2cc(C#N)ccc21", "note": "[Escitalopram]", "values": [{"measurement": "Latency to reach Novel Object", "setting": "[1]; [11]", "result": 32, "unit": "s"}, {"measurement": "Number of times sniffing the object", "setting": "[1]; [11]", "result": 48, "unit": "times"}, {"measurement": "Time Spent sniffing the object", "setting": "[1]; [11]", "result": "09", "unit": "%"}, {"measurement": "CREB", "setting": "[2]", "result": 0.8, "unit": "nM"}, {"measurement": "Plasma ALCAR", "setting": "[3]", "result": 23, "unit": "nmol/mL"}, {"measurement": "cAMP", "setting": "[4]", "result": 6.0, "unit": "pmol/µL"}, {"measurement": "Force Swim Test Immobility", "setting": "[5]", "result": 68, "unit": "s"}, {"measurement": "Mean Serum ALCAR, Non-Responder group", "setting": "[6]; Baseline", "result": 0.94, "unit": "µg/mL"}, {"measurement": "Mean Serum ALCAR, Remission group", "setting": "[6]; Baseline", "result": 1.20, "unit": "µg/mL"}, {"measurement": "Mean Serum ALCAR, Responder group", "setting": "[6]; Baseline", "result": 0.91, "unit": "µg/mL"}, {"measurement": "Mean Serum ALCAR, Non-Responder group", "setting": "[6]; Week-12", "result": 0.99, "unit": "µg/mL"}, {"measurement": "Mean Serum ALCAR, Remission group", "setting": "[6]; Week-12", "result": 3.53, "unit": "µg/mL"}, {"measurement": "Mean Serum ALCAR, Responder group", "setting": "[6]; Week-12", "result": 2.19, "unit": "µg/mL"}, {"measurement": "Mean serum ALCAR at pretreatment", "setting": "[6]; [12]", "result": 1.01, "unit": "microgram/ml"}, {"measurement": "Number of entries in to open arm", "setting": "[7]; [11]", "result": "07", "unit": "times"}, {"measurement": "Number of times head dipping", "setting": "[7]; [11]", "result": 12, "unit": "times"}, {"measurement": "Number of times rearing", "setting": "[7]; [11]", "result": 18, "unit": "times"}, {"measurement": "Time Spent Rearing", "setting": "[7]; [11]", "result": 16, "unit": "%"}, {"measurement": "Time in the open arms", "setting": "[7]; [11]", "result": 11, "unit": "%"}, {"measurement": "time spent head dipping", "setting": "[7]; [11]", "result": 12, "unit": "%"}, {"measurement": "Open Field Test Distance walked in corners", "setting": "[8]; [11]", "result": 1900, "unit": "cm"}, {"measurement": "Open Field Test Latency to reach center", "setting": "[8]; [11]", "result": 26, "unit": "s"}, {"measurement": "Mean HAM-D Score", "setting": "[9]; Baseline", "result": 26.2}, {"measurement": "Mean HAM-D Score", "setting": "[9]; Week-4", "result": 25.72}, {"measurement": "Non-Responder Rate", "setting": "[9]; Week-4", "result": "(100%)"}, {"measurement": "Non-Responder Rate, patients/total", "setting": "[9]; Week-4", "result": "40/40"}, {"measurement": "Remission Rate (HAM-D Score <7)", "setting": "[9]; Week-4", "result": "(0%)"}, {"measurement": "Remission Rate (HAM-D Score <7), patients/total", "setting": "[9]; Week-4", "result": "0/40"}, {"measurement": "Responder Rate (50% Reduction from baseline)", "setting": "[9]; Week-4", "result": "(0%)"}, {"measurement": "Responder Rate (50% Reduction from baseline), patients/total", "setting": "[9]; Week-4", "result": "0/40"}, {"measurement": "Mean HAM-D Score", "setting": "[9]; Week-8", "result": 21.45}, {"measurement": "Non-Responder Rate", "setting": "[9]; Week-8", "result": "(97.5%)"}, {"measurement": "Non-Responder Rate, patients/total", "setting": "[9]; Week-8", "result": "39/40"}, {"measurement": "Remission Rate (HAM-D Score <7)", "setting": "[9]; Week-8", "result": "(0%)"}, {"measurement": "Remission Rate (HAM-D Score <7), patients/total", "setting": "[9]; Week-8", "result": "0/40"}, {"measurement": "Responder Rate (50% Reduction from baseline)", "setting": "[9]; Week-8", "result": "(2.5%)"}, {"measurement": "Responder Rate (50% Reduction from baseline), patients/total", "setting": "[9]; Week-8", "result": "1/40"}, {"measurement": "Mean HAM-D Score", "setting": "[9]; Week-12", "result": 13.75}, {"measurement": "Non-Responder Rate", "setting": "[9]; Week-12", "result": "(52.5%)"}, {"measurement": "Non-Responder Rate, patients/total", "setting": "[9]; Week-12", "result": "21/40"}, {"measurement": "Remission Rate (HAM-D Score <7)", "setting": "[9]; Week-12", "result": "(17.5%)"}, {"measurement": "Remission Rate (HAM-D Score <7), patients/total", "setting": "[9]; Week-12", "result": "7/40"}, {"measurement": "Responder Rate (50% Reduction from baseline)", "setting": "[9]; Week-12", "result": "(30%)"}, {"measurement": "Responder Rate (50% Reduction from baseline), patients/total", "setting": "[9]; Week-12", "result": "12/40"}, {"measurement": "Non-Responder Remission Rate in Female Subgroup", "setting": "[9]; Week-12, female subgroup", "result": "(75%)"}, {"measurement": "Non-Responder Remission Rate in Female Subgroup, patients/total", "setting": "[9]; Week-12, female subgroup", "result": "21/28"}, {"measurement": "Responder Remission Rate in Female Subgroup", "setting": "[9]; Week-12, female subgroup", "result": "(25%)"}, {"measurement": "Responder Remission Rate in Female Subgroup, patients/total", "setting": "[9]; Week-12, female subgroup", "result": "7/28"}, {"measurement": "Mean HAM-D Score at pretreatment", "setting": "[9]; [12]", "result": 26.2}]}
{"smiles": "N=C(N)NCCCCN", "note": "[Group 5, N-4-aminobutylguanidine]", "values": [{"measurement": "Time Spent sniffing the object", "setting": "[1]", "result": "09", "unit": "%"}, {"measurement": "Latency to reach Novel Object", "setting": "[1]; [11]", "result": 36, "unit": "s"}, {"measurement": "Number of times sniffing the object", "setting": "[1]; [11]", "result": 47, "unit": "times"}, {"measurement": "CREB", "setting": "[2]", "result": 1.2, "unit": "nM"}, {"measurement": "Plasma ALCAR", "setting": "[3]", "result": 22, "unit": "nmol/mL"}, {"measurement": "cAMP", "setting": "[4]", "result": 5.1, "unit": "pmol/µL"}, {"measurement": "Force Swim Test Immobility", "setting": "[5]", "result": 59, "unit": "s"}, {"measurement": "BDNF", "setting": "[10]", "result": 91, "unit": "ng/L"}, {"measurement": "Time Spent Rearing", "setting": "[7]", "result": 13, "unit": "%"}, {"measurement": "time spent head dipping", "setting": "[7]", "result": 10, "unit": "%"}, {"measurement": "Number of entries in to open arm", "setting": "[7]; [11]", "result": "07", "unit": "times"}, {"measurement": "Number of times head dipping", "setting": "[7]; [11]", "result": 11, "unit": "times"}, {"measurement": "Number of times rearing", "setting": "[7]; [11]", "result": 16, "unit": "times"}, {"measurement": "Time in the open arms", "setting": "[7]; [11]", "result": 11, "unit": "%"}, {"measurement": "Open Field Test Distance walked in corners", "setting": "[8]", "result": 1820, "unit": "cm"}, {"measurement": "Open Field Test Latency to reach center", "setting": "[8]", "result": 25, "unit": "s"}]}
